Experiments:
HeLa cell line = assay: Transactivation assay for antiestrogenic action, HeLa cell line; type: cell-based; details: Homo sapiens, antiestrogenic action in transactivation assay
Protocol: The compounds of general formula I according to this application are distinguished by a new type of side chain on the phenoxy radical in comparison to the already known tamoxifen derivatives. […] As mentioned an estrogenic partial action can also be present in the-compounds according to the invention. The antiestrogenic and optionally estrogenic action of the compounds according to the invention was determined in a transactivation assay [Demirpence, E.; Duchesne, M.-J.; Badia, E.; Gagne, D.; and Pons, M.: MVLN Cells: A Bioluminescent MCF-7-Derived Cell Line to Study the Modulation of Estrogenic Activity; J. Steroid Molec. Biol.. Vol. 46, No. 3, 355-364 (1993) as well as Savouret, J. F.; Bailly, A.; Misrahi, M.; Rauch, C.; Redeuilh, G.; Chauchereau, A. and Milgrom, E.: Characterization of the Hormone Responsive Element Involved in the Regulation of the Progesterone Receptor Gene, The EMBO Journal Vol. 10, No. 7, 1875-1883 (1991)].
The IC50 values for the new compounds lie in the nanomolar range. In the HeLa cell line, the following IC50 values are produced for the compounds of Examples 5, 12, 13 and 16 (test implementation according to the bibliographic references indicated above): […]

[1] = test system: estrogens (antiestrogenic / estrogenic activity); details: reference compound; cited from earlier work

Row | Structure (SMILES) | IC50 (HeLa cell line) [nM] | antiestrogenic / estrogenic profile of tamoxifen [1]
1 | CCC(=C(c1ccc(O)cc1)c1ccc(OCCCCC[S+]([O-])CCCC(F)(F)C(F)(F)F)cc1)c1ccccc1 (centres unmarked) [Example 5, 4-(1-{4-[5-(4,4,5,5,5-Pentafluoropentanesulfinyl)-pentyloxy]-phenyl}-2-phenyl-but-1-enyl)-phenol] | 1 | –
2 | CCC(=C(c1ccc(O)cc1)c1ccc(OCCCCCSCc2ccccn2)cc1)c1ccccc1 [Example 11, 4-((E,Z)-2-Phenyl-1-{4-[5-(pyridin-2-ylmethylsulfidyl)-pentyloxy]-phenyl}-but-1-enyl)-phenol] | 5 | –
3 | CCC(=C(c1ccc(O)cc1)c1ccc(OCCCCC[S+]([O-])Cc2ccccn2)cc1)c1ccccc1 (centres unmarked) [Example 12, 4-((E,Z)-2-Phenyl-1-{4-[5-(pyridin-2-ylmethanesulfinyl)-pentyloxy]-phenyl}-but-1-enyl)-phenol] | 2.8 | –
4 | CCC(=C(c1ccc(I)cc1)c1ccc(OCCCCC[S+]([O-])CCCC(F)(F)C(F)(F)F)cc1)c1ccccc1 (centres unmarked) [Example 15, (5-{4-[(E,Z)-1-(4-Iodophenyl)-2-phenyl-but-1-enyl]-phenoxy}-pentyl)-(4,4,5,5,5-pentafluoropentyl)-sulfoxide] | 17 | –
5 | CC/C(=C(\c1ccccc1)c1ccc(OCCN(C)C)cc1)c1ccccc1 [tamoxifen] | – | antiestrogens with estrogenic partial action
